Source: patent US10227362B2 (priority 2015, dated 2019)
In brackets after ≈: the same amount, converted by molar mass.

How the values were obtained:
Assay type in all cases: cell-based
[1] = system: Mycobacterium bovis BCG strain TMC1019 (ATCC35737); experiment: microbe, parasite or virus in culture; conditions: Mycobacterium tuberculosis variant bovis BCG, 24 h, read-out: M. bovis ATCC35737 (ug/mL)
Vero Cell = experiment: Vero cell cytotoxicity; conditions: Chlorocebus sabaeus, Vero cells
[2] = system: Mycobacterium tuberculosis H37Rv strain; experiment: In vitro MIC against M. tuberculosis H37Rv strain (MABA, Alamar Blue)
Procedure: Part I: The in vitro efficacy of anti-Mycobacterium tuberculosis compounds was tested using H37Rv strain.
On the day of the test, the compound was dissolved in pure DMSO (Sigma 276855-2L) to a concentration of 10 mg/mL which was used as the mother liquor of the compound. 30 μL of DMSO was added to wells of column 2 to 11 s of the v-bottom 96-well plates (Axygen-wipp02280). 30 μL of the mother liquor of the compound was added to the well of column 2, after mixing, 30 μL was taken from the well of column 2 and added to the well of column 3, and then pipetted and mixed. The operation was taken to column 10. Column 11 was free of medicine and contained only 30 μL of DMSO. This was the “motherplate” of the compound. From column 2 to 11, the corresponding concentration of the compound was 5, 2.5, 1.25, 0.625, 0.3125, 0.156, 0.078, 0.039, 0.02, 0 mg/mL. […] A flat bottom 96-well plate (Greiner 655090) was used as a “daughterplate”. 98 μL of 7H9 (Sigma M0178) medium was added to the wells of all daughterplates. 2 μL of compound was extracted from the motherboard and added to the corresponding daughter plate. Line A and H, column 1 and 12 of the daughterplate contained only 7H9 medium.
The H37Rv strain in the glycerol cryovial was inoculated into 7H9 medium containing 0.05% Tween 80 and cultured for 4 weeks at 37° C. in a shaker with 200 rpm. The bacterial liquid was washed twice with 7H9 medium containing 0.05% Tween 80 and resuspended in the same medium. The absorbance of the bacteria liquid was adjusted to OD550=0.4-0.5 using the same medium. The bacteria liquid was sub-packed in microcentrifuge tubes and stored at −80° C. Storage time was no more than 1 month. On the day of the test, the packaged bacteria liquid would be […]. The bacteria liquid was diluted 20 times and then diluted 50 times with 7H9 medium, and a total of 1000 times dilution. The bacteria liquid would be used to inoculate on the daughterplate. 100 μL of bacterial liquid was inoculated in each well of the daughterboard, 100 μL 7H9 medium was added to column 12 and without bacteria liquid.
The test daughterplate was placed in an incubator at 37° C. and the humidity was maintained at >80%. A week later, 12.5 μL of 7H9 medium containing 20% Tween 80 and 20 μL of Alamar Blue (Invitrogen DAL1100) were added to the well of a column 1 containing bacteria and the well of a column 12 without bacteria every day, and then continue to incubate for 24 hours and observed. When the added Alamar Blue was reduced to pink in 24 hours by the bacteria liquid in the well of column 1, the 7H9 medium containing 20% Tween 80 and Alamar Blue were added to all wells on the test plate and the fluorescence values were measured after incubation for 24 hours at 37° C.

| Compound | MIC [1] [µg/mL] | IC50 (Vero Cell) [µg/mL] | MIC [2] [µg/mL] |
| --- | --- | --- | --- |
| C[C@]1(CN2CCc3nc(-c4cc(F)cc(Cl)c4)ccc3C2)Cn2cc([N+](=O)[O-])nc2O1 [Compound 21, (S)-2-((2-(3-Chloro-5-fluorophenyl)-7,8-dihydro-1,6-naphthyridin-6(5H)-yl)methyl)-2-methyl-6-nitro-2,3-dihydroimidazo[2,1-b]oxazole] | < 1 | – | – |
| C[C@]1(CN2CCc3nc(-c4ccc(C(F)(F)F)cc4)ccc3C2)Cn2cc([N+](=O)[O-])nc2O1 [Compound 10, (S)-2-Methyl-6-nitro-2-((2-(4-(trifluoromethyl)phenyl)-7,8-dihydro-1,6-naphthyridin-6(5H)-yl)methyl)-2,3-dihydroimidazo[2,1-b]oxazole] | < 1 | > 32 | < 1 |
| C[C@]1(CN2Cc3nc(-c4ccc(OC(F)(F)F)cc4)sc3C2)Cn2cc([N+](=O)[O-])nc2O1 [Compound 73, (S)-2-Methyl-6-nitro-2-((2-(4-(trifluoromethoxy)phenyl)-4H-pyrrolo[3,4-d]thiazol-5(6H)-yl)methyl)-2,3-dihydroimidazo[2,1-b]oxazole] | 1 to 32 (≈ 2.14 to 68.5 µM) | – | – |
| C[C@]1(CN2CCc3nc(C4CCCCC4)ccc3C2)Cn2cc([N+](=O)[O-])nc2O1 [Compound 59, (S)-2-((2-Cyclohexyl-7,8-dihydro-1,6-naphthyridin-6(5H)-yl)methyl)-2-methyl-6-nitro-2,3-dihydroimidazo[2,1-b]oxazole] | < 1 | – | – |
| C[C@]1(CN2CCc3sc(-c4ccc(F)cc4)nc3C2)Cn2cc([N+](=O)[O-])nc2O1 [Compound 67, (S)-2-((2-(4-Fluorophenyl)-6,7-dihydrothiazolo[4,5-c]pyridin-5(4H)-yl)methyl)-2-methyl-6-nitro-2,3-dihydroimidazo[2,1-b]oxazole] | < 1 | > 32 | < 1 |
| C[C@]1(Cn2cc3nc(-c4ccc(F)cc4)sc3c2)Cn2cc([N+](=O)[O-])nc2O1 [Compound 75, (S)-2-((2-(4-Fluorophenyl)-5H-pyrrolo[3,4-d]thiazol-5-yl)methyl)-2-methyl-6-nitro-2,3-dihydroimidazo[2,1-b]oxazole] | 1 to 32 (≈ 2.5 to 80.1 µM) | – | – |
| C[C@]1(CN2CCc3nc(C4CC4)ccc3C2)Cn2cc([N+](=O)[O-])nc2O1 [Compound 26, (S)-2-((2-Cyclopropyl-7,8-dihydro-1,6-naphthyridin-6(5H)-yl)methyl)-2-methyl-6-nitro-2,3-dihydroimidazo[2,1-b]oxazole] | < 1 | – | – |
| C[C@]1(CN2CCc3nc(N4CCCCC4)ccc3C2)Cn2cc([N+](=O)[O-])nc2O1 [Compound 28, (S)-2-Methyl-6-nitro-2-((2-(piperidin-1-yl)-7,8-dihydro-1,6-naphthyridin-6(5H)-yl)methyl)-2,3-dihydroimidazo[2,1-b]oxazole] | < 1 | – | – |
| C[C@]1(CN2CCc3nc(-c4ccc(OC(F)(F)F)c(F)c4)ccc3C2)Cn2cc([N+](=O)[O-])nc2O1 [Compound 11, (S)-2-((2-(3-Fluoro-4-(trifluoromethoxy)phenyl)-7,8-dihydro-1,6-naphthyridin-6(5H)-yl)methyl)-2-methyl-6-nitro-2,3-dihydroimidazo[2,1-b]oxazole] | 1 to 32 (≈ 2.03 to 64.9 µM) | – | – |
| C[C@]1(CN2CCc3nc(-c4ccc(Cl)cc4F)ccc3C2)Cn2cc([N+](=O)[O-])nc2O1 [Compound 23, (S)-2-((2-(4-Chloro-2-fluorophenyl)-7,8-dihydro-1,6-naphthyridin-6(5H)-yl)methyl)-2-methyl-6-nitro-2,3-dihydroimidazo[2,1-b]oxazole] | < 1 | – | – |
| C[C@]1(CN2CCc3nc(Nc4ccc(F)cc4)ccc3C2)Cn2cc([N+](=O)[O-])nc2O1 [Compound 33, (S)—N-(4-Fluorophenyl)-6-((2-methyl-6-nitro-2,3-dihydroimidazo[2,1-b]oxazol-2-yl)methyl)-5,6,7,8-tetrahydro-1,6-naphthyridin-2-amine] | < 1 | – | – |
| C[C@]1(CN2Cc3nc(-c4ccc(F)cc4Cl)sc3C2)Cn2cc([N+](=O)[O-])nc2O1 [Compound 77, (S)-2-((2-(2-chloro-4-fluorophenyl)-4H-pyrrolo[3,4-d]thiazol-5(6H)-yl)methyl)-2-methyl-6-nitro-2,3-dihydroimidazo[2,1-b]oxazole] | < 1 | > 32 | < 1 |
| C[C@]1(CN2CCc3nc(-c4cc(F)cc(F)c4)ncc3C2)Cn2cc([N+](=O)[O-])nc2O1 [Compound 48, (S)-2-((2-(3,5-Difluorophenyl)-7,8-dihydropyrido[4,3-d]pyrimidin-6(5H)-yl)methyl)-2-methyl-6-nitro-2,3-dihydroimidazo[2,1-b]oxazole] | < 1 | – | – |
| C[C@]1(CN2CCc3nc(-c4cc(F)ccc4F)ccc3C2)Cn2cc([N+](=O)[O-])nc2O1 [Compound 17, (S)-2-((2-(2,5-Difluorophenyl)-7,8-dihydro-1,6-naphthyridin-6(5H)-yl)methyl)-2-methyl-6-nitro-2,3-dihydroimidazo[2,1-b]oxazole] | < 1 | – | – |
| C[C@]1(CN2CCc3oc(-c4ccc(F)cc4)cc3C2)Cn2cc([N+](=O)[O-])nc2O1 [Compound 64, (S)-2-(4-Fluorophenyl)-5-((2-methyl-6-nitro-2,3-dihydroimidazo[2,1-b]oxazol-2-yl)methyl)-4,5,6,7-tetrahydrofuro[3,2-c]pyridine] | < 1 | – | – |
| C[C@]1(CN2CCc3nc(-c4ccc(F)c(Cl)c4)ccc3C2)Cn2cc([N+](=O)[O-])nc2O1 [Compound 18, (S)-2-((2-(3-Chloro-4-fluorophenyl)-7,8-dihydro-1,6-naphthyridin-6(5H)-yl)methyl)-2-methyl-6-nitro-2,3-dihydroimidazo[2,1-b]oxazole] | < 1 | – | – |
| C[C@]1(CN2Cc3nc(-c4ccc(F)c(F)c4)oc3C2)Cn2cc([N+](=O)[O-])nc2O1 [Compound 90, (S)-2-(3,4-Difluorophenyl)-5-((2-methyl-6-nitro-2,3-dihydroimidazo[2,1-b]oxazol-2-yl)methyl)-5,6-dihydro-4H-pyrrolo[3,4-d]oxazole] | < 1 | – | – |
| C[C@]1(CN2CCc3nc(-c4cc(Cl)ccc4F)ccc3C2)Cn2cc([N+](=O)[O-])nc2O1 [Compound 15, (S)-2-((2-(5-Chloro-2-fluorophenyl)-7,8-dihydro-1,6-naphthyridin-6(5H)-yl)methyl)-2-methyl-6-nitro-2,3-dihydroimidazo[2,1-b]oxazole] | < 1 | – | – |
| C[C@]1(CN2Cc3nc(-c4cc(F)c(F)cc4F)oc3C2)Cn2cc([N+](=O)[O-])nc2O1 [Compound 94, (S)-5-((2-Methyl-6-nitro-2,3-dihydroimidazo[2,1-b]oxazol-2-yl)methyl)-2-(2,4,5-trifluorophenyl)-5,6-dihydro-4H-pyrrolo[3,4-d]oxazole] | < 1 | – | – |
| C[C@]1(CN2Cc3nc(-c4cc(F)c(F)cc4F)sc3C2)Cn2cc([N+](=O)[O-])nc2O1 [Compound 83, (S)-2-Methyl-6-nitro-2-((2-(2,4,5-trifluorophenyl)-4H-pyrrolo[3,4-d]thiazol-5(6H)-yl)methyl)-2,3-dihydroimidazo[2,1-b]oxazole] | < 1 | – | – |
| C[C@]1(CN2CCc3nc(-c4cccc(F)c4F)ccc3C2)Cn2cc([N+](=O)[O-])nc2O1 [Compound 16, (S)-2-((2-(2,3-Difluorophenyl)-7,8-dihydro-1,6-naphthyridin-6(5H)-yl)methyl)-2-methyl-6-nitro-2,3-dihydroimidazo[2,1-b]oxazole] | < 1 | – | – |
| C[C@]1(CN2CCc3nc(-c4cc(F)ccc4Cl)ccc3C2)Cn2cc([N+](=O)[O-])nc2O1 [Compound 22, (S)-2-((2-(2-Chloro-5-fluorophenyl)-7,8-dihydro-1,6-naphthyridin-6(5H)-yl)methyl)-2-methyl-6-nitro-2,3-dihydroimidazo[2,1-b]oxazole] | < 1 | – | – |
| C[C@]1(CN2CCc3nc(-c4cccc(Cl)c4F)ccc3C2)Cn2cc([N+](=O)[O-])nc2O1 [Compound 19, (S)-2-((2-(3-Chloro-2-fluorophenyl)-7,8-dihydro-1,6-naphthyridin-6(5H)-yl)methyl)-2-methyl-6-nitro-2,3-dihydroimidazo[2,1-b]oxazole] | < 1 | – | – |
| C[C@]1(CN2CCc3nc(-c4ccsc4Cl)ccc3C2)Cn2cc([N+](=O)[O-])nc2O1 [Compound 53, (S)-2-((2-(2-Chlorothiophen-3-yl)-7,8-dihydro-1,6-naphthyridin-6(5H)-yl)methyl)-2-methyl-6-nitro-2,3-dihydroimidazo[2,1-b]oxazole] | < 1 | – | – |
